Converted amounts (≈) assume the structure as drawn. “Also recorded” adds a separate entry of the source.
What was measured:
[1] = Drug absorption after drug pretreatment of PDMS / PDMS-PEG samples; assay type: physicochemical; conditions: 1 week pretreatment, 100 μM
[2] = cited from earlier work
[3] = cited from earlier work; remark: listed apart in the source
[4] = 1-week drug absorption by PDMS / PDMS-PEG block copolymer plugs (UV-Vis); assay type: physicochemical; conditions: 100 μM drug, 37° C.; for 1-week drug absorption with block copolymer versus PDMS: 1% and 2% BCP; for reduction of drug absorption by PDMS-PEG block copolymer additives: compared to PDMS
Experimental: Plug size was chosen to be similar to many microfluidic devices. After 1 week, the drug concentration was measured using UV-Vis spectroscopy, the area under the curve (AUC) was calculated, and each value was compared to drug standards to determine the percent drug loss (FIG. 2A).
PDMS-PEG Fabrication: PDMS was prepared as previously described in Scott, L. E., Mair, D. B., Narang, J. D., Feleke, K. & Lemmon, C. A. Fibronectin fibrillogenesis facilitates mechano-dependent cell spreading, force generation, and nuclear size in human embryonic fibroblasts. […] PDMS base was mixed with PDMS crosslinker at a […] for 5 minutes and was then degassed in a desiccator for 30 minutes. […] 8 mm plugs were taken using a biopsy punch and used in downstream experiments. This height/diameter was chosen to provide a surface to volume ratio of ˜0.2/mm, similar to that found in microfluidic devices.
Drug absorption experimental setup: Samples were added to glass vials. A 1.5 mL volume of 100 μM pharmaceutical solution was added, and the samples were fully submerged in the solution. […] Experimental samples were compared to controls, in which drug was incubated for one week without a PDMS sample. The mean of the controls was taken as the total drug concentration without absorption, and the percent drug loss was calculated as
UV-Vis: Following experimental absorption, 2 μL samples were measured (Nanodrop 2000, ThermoFisher Scientific). Measurements were taken in triplicate for each sample to decrease noise. […] The area under the curve was used to calculate the precent drug loss, compared to the AUC of the drug standards. Sample size equals three, with three independent measurements per sample.

[5] = Drug absorption after drug pretreatment of PDMS / PDMS-PEG samples; assay type: physicochemical; conditions: 24 hour pretreatment
Experimental: We pretreated with 200 μM and 1 mM concentrations and 1 week of absorption was measured (FIG. 4A). […] For these experiments, we utilized a 24 hour pretreatment step.
Drug Pretreatment: PDMS, 1% block copolymer, and 2% block copolymer samples were prepared as mentioned above. […] Pretreated samples were then transferred to a fresh 100 μM drug solution for one week of absorption, and absorption was assessed as described.

[6] = test system: engineered heart tissue (EHT); experiment: Engineered heart tissue (Mantarray) twitch force dose response
Source text: We utilized the commercially available Mantarray (Curi Bio) engineered heart tissue (EHT) platform to perform these screens. In this platform, the EHT self assembles between two posts, one soft and bendable, and the other stiff and immovable (FIG. 6B). The soft post has an embedded magnet, and deflection of the post due to EHT contraction results in changes in magnetic flux. The tissues can be placed over magnetic sensor arrays in the Mantarray system to measure this change in flux and calculate the twitch forces and kinetics.
After drug was allowed to absorb for 1 week, dose response curves were measured for each condition. […]
Engineered Heart Tissue Fabrication: The Mantarray (Curi Bio) is a system designed for reproducible fabrication and functional measurements of EHTs in a 24-well plate format. […] Cardiomyocytes and HS27A stromal cells (ATCC) were lifted using 0.05% trypsin+EDTA, counted, and resuspended at 8.3 million cells/mL and 2.5 million cells/mL, respectively. […]
EHT Dosing and Contractile Measurements: EHTs were fabricated as described above and paced to measure average force output. […] EHTs were paced at 5.0 V 1 Hz with a pulse duration of 10 milliseconds and average force output readings were recorded using a Mantarray for 60 seconds to give an initial mean force average. […] Percent reduction in twitch force following exposure to drug was then calculated using the equation

[7] = 200 μM and 1 mM, PDMS, 1% and 2% BCP overall

Row | 1-week drug absorption with block copolymer versus PDMS [4] | effect of pretreating with higher dosages on drug absorption [5, 7] | effect of pretreating with higher dosages on drug absorption ([5]; 1 mM, 2% BCP) | reduction of drug absorption by PDMS-PEG block copolymer additives [4] [%] | effect of pretreating with higher dosages on drug absorption ([5]; 1 mM, PDMS) | Structure (SMILES) | effect of pretreating with experimental dosages for 1 week on drug absorption ([1]; PDMS only) | Solubility in H2O [2] [mg/mL] | logP [3] | effect of pretreating with higher dosages on drug absorption ([5]; increasing dosage, 1% BCP) | effect of pretreating with higher dosages on drug absorption ([5]; increasing dosage, PDMS) | effect of pretreating with experimental dosages for 1 week on drug absorption ([1]; PDMS and PDMS-PEG BCP samples) | effect of pretreating with higher dosages on drug absorption ([5]; 200 μM, 2% BCP) | IC50 of drug incubated with APC compared to control ([6]; drug incubated 1 week at 37° C. with APC (2% block copolymer-1 mM)) | IC50 of drug incubated with PDMS compared to control and APC ([6]; drug incubated 1 week at 37° C. with PDMS)
1 | no significant improvement | significant reductions | significantly decreases absorption | – | – | CC(C)COCC(CN(Cc1ccccc1)c1ccccc1)N1CCCC1 (stereo not shown) [Bepridil] | significantly decreases bepridil absorption | 0.05655 (≈ 154 µM) | 5.2 | a decrease, followed by an increase in drug absorption; also recorded: increased | a decrease, followed by an increase in drug absorption; also recorded: increased | – | – | – | –
2 | significantly reduced | significant reductions | – | 97.2 | increased | COCCc1ccc(OCC(O)CNC(C)C)cc1 (stereo not shown) [Metoprolol Succinate] | – | 1000 | – | no significant change in absorption | biphasic drug absorption pattern | no significant effect | significant increase in absorption; also recorded: increased | – | –
3 | – | – | – | – | – | COc1ccc(CCN(C)CCCC(C#N)(c2ccc(OC)c(OC)c2)C(C)C)cc1OC (stereo not shown) [Verapamil] | – | – | – | – | – | – | – | not significantly different from control | significantly reduce the IC50 value

Row | Structure (SMILES) | 1-week drug absorption with block copolymer versus PDMS [4] | effect of pretreating with higher dosages on drug absorption [5, 7] | effect of pretreating with higher dosages on drug absorption ([5]; 1 mM, 2% BCP) | reduction of drug absorption by PDMS-PEG block copolymer additives [4] [%] | effect of pretreating with higher dosages on drug absorption ([5]; 1 mM, PDMS) | effect of pretreating with experimental dosages for 1 week on drug absorption ([1]; PDMS only) | Solubility in H2O [2] [mg/mL] | logP [3] | effect of pretreating with higher dosages on drug absorption ([5]; increasing dosage, 1% BCP) | effect of pretreating with higher dosages on drug absorption ([5]; increasing dosage, PDMS) | effect of pretreating with experimental dosages for 1 week on drug absorption ([1]; PDMS and PDMS-PEG BCP samples) | effect of pretreating with higher dosages on drug absorption ([5]; 200 μM, 2% BCP) | IC50 of drug incubated with APC compared to control ([6]; drug incubated 1 week at 37° C. with APC (2% block copolymer-1 mM)) | IC50 of drug incubated with PDMS compared to control and APC ([6]; drug incubated 1 week at 37° C. with PDMS)
4 | CC(C)(C)c1ccc(C(O)CCCN2CCC(C(O)(c3ccccc3)c3ccccc3)CC2)cc1 (stereo not shown) [Terfenadine] | significantly reduced | further decrease terfenadine absorption; also recorded: significant reductions | – | 61.8 | – | – | 0.0963 (≈ 204 µM) | 6.6 | – | – | significantly decreases terfenadine absorption | – | – | –

From US20260008048A1, “POLYSILOXANE-BASED DEVICES WITH REDUCED DRUG ABSORPTION CHARACTERISTICS” (THE JOHNS HOPKINS UNIVERSITY, priority 2022, published 2026)
